For the test, the system named is S. aureus A-9606. The test can be described thus: Protective effect in the intramuscular treatment of infected mice. The note with it: Staphylococcus aureus, A9606, im, i.m. 0 and 2 h postinfection, i.p. challenge ~9 × 10^7 (Ex. 4 and 5), read-out: PD50/treatment. It counts as in vivo. The procedure: Treatment Schedule: *For compound of Ex. 2, mice were infected i.p. with
A20481. For compounds of Ex. 4 and 5, mice were infected i.p. with
(A9843A). Mice were treated i.m. with drugs 0 and 2 h postinfection.

The results in this text go back to patent US4640799A, “Carbapenem antibiotics” (priority 1985, dated 1987).

For `C[C@@H](O)[C@H]1C(=O)N2C(C(=O)[O-])=C(SCC[N+]3(C)CCSCC3)C[C@H]12` [Ex. 2, 3-[2-(N-methyl-thiomorpholinium)ethylthio]-6α-[1'-(R)-hydroxyethyl]-7-oxo-1-azabicyclo[3.2.0]-hept-2-ene-2-carboxylate], the ED50 was found to be 0.72 mg/kg.
Regarding `C[C@@H](O)[C@H]1C(=O)N2C(C(=O)[O-])=C(SCC[N+]3(C)CCN(C)CC3)C[C@H]12` [Ex. 4, (5R,6S)3-[2-(1,4-dimethyl-1-piperazinium)ethylthio]-6-[1-(R)-hydroxyethyl]-7-oxo-1-azabicyclo[3.2.0]hept-2-ene-2-carboxylate], the ED50 was found to be 1.6 mg/kg.
Then `C[C@@H](O)[C@H]1C(=O)N2C(C(=O)[O-])=C(SCC[N+]3(C)CC[S+]([O-])CC3)C[C@H]12` (single isomer, unassigned) [Ex. 5 comp. A], with 1.2 mg/kg.
